From patent US20230011869A1 (Hoffmann-La Roche Inc., priority 2018, published 2023)
Counter-ions that a name gives are not always drawn.

test system: Acinetobacter baumannii ATCC17978; experiment: Antimicrobial susceptibility testing: 90% growth inhibitory concentration (IC90) determination, Iso-Sensitest broth; type: cell-based; conditions: 90% growth inhibitory concentration, Acinetobacter baumannii ATCC17978, Iso-Sensitest broth, OD 600 nm over 16 h; read-out: ATCC17978 IC90
Procedure, shortened: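 A. baumannii ATCC17978 grown in Iso-Sensitest broth across 10 compound concentrations at 35±2 °C.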

| IC90 | SMILES |
| --- | --- |
| 320 nM | Cc1cc(Nc2nccn3c(-c4ccc(Oc5ccccn5)c(F)c4F)cnc23)ccc1C(=O)N1CCC(CN)CC1 [Example 122, [4-(aminomethyl)-1-piperidyl]-[4-[[3-[2,3-difluoro-4-(2-pyridyloxy)phenyl]imidazo[1,2-a]pyrazin-8-yl]amino]-2-methyl-phenyl]methanone formate] |
| 760 nM | Cc1cc(Nc2nccn3c(-c4ccc(Oc5ccncc5)c(F)c4F)cnc23)ccc1C(=O)N1CCC(CN)CC1 [Example 123, [4-(aminomethyl)-1-piperidyl]-[4-[[3-[2,3-difluoro-4-(4-pyridyloxy)phenyl]imidazo[1,2-a]pyrazin-8-yl]amino]-2-methyl-phenyl]methanone] |
| 900 nM | Cc1cc(Nc2nccn3c(-c4ccc(OCc5cccnc5)c(F)c4F)cnc23)ccc1C(=O)N1CCC(CN)CC1 [Example 124, [4-(aminomethyl)-1-piperidyl]-[4-[[3-[2,3-difluoro-4-(3-pyridylmethoxy)phenyl]imidazo[1,2-a]pyrazin-8-yl]amino]-2-methyl-phenyl]methanone formate] |
| 1700 nM | Cc1cc(Nc2nccn3c(-c4ccc(OCc5ccccn5)c(F)c4F)cnc23)ccc1C(=O)N1CCC(CN)CC1 [Example 125, [4-(aminomethyl)-1-piperidyl]-[4-[[3-[2,3-difluoro-4-(2-pyridylmethoxy)phenyl]imidazo[1,2-a]pyrazin-8-yl]amino]-2-methyl-phenyl]methanone; formic acid] |
| 3600 nM | Cc1cc(Nc2nccn3c(-c4ccc(OCc5ccccc5)c(F)c4F)cnc23)ccc1C(=O)N1CCC(CN)CC1 [Example 126, [4-(aminomethyl)-1-piperidyl]-[4-[[3-(4-benzyloxy-2,3-difluoro-phenyl)imidazo[1,2-a]pyrazin-8-yl]amino]-2-methyl-phenyl]methanone formate] |
| 910 nM | Cc1cc(Nc2nccn3c(-c4ccc(OCc5ccncc5)c(F)c4F)cnc23)ccc1C(=O)N1CCC(CN)CC1 [Example 127, [4-(aminomethyl)-1-piperidyl]-[4-[[3-[2,3-difluoro-4-(4-pyridylmethoxy)phenyl]imidazo[1,2-a]pyrazin-8-yl]amino]-2-methyl-phenyl]methanone formate] |

Second part, the compound before the results:

| SMILES | IC90 |
| --- | --- |
| Cc1cc(Nc2nccn3c(-c4ccc(OC5CC5)c(Cl)c4)cnc23)ccc1C(=O)N1CCC(CN)CC1 [Example 117, [4-(aminomethyl)-1-piperidyl]-[4-[[3-[3-chloro-4-(cyclopropoxy)phenyl]imidazo[1,2-a]pyrazin-8-yl]amino]-2-methyl-phenyl]methanone formate] | 540 nM |
| Cc1cc(Nc2nccn3c(-c4ccc(OCC5CC5)c(F)c4)cnc23)ccc1C(=O)N1CCC(CN)CC1 [Example 118, (4-(aminomethyl)piperidin-1-yl)(4-((3-(4-(cyclopropylmethoxy)-3-fluorophenyl)imidazo[1,2-a]pyrazin-8-yl)amino)-2-methylphenyl)methanone] | 940 nM |
| Cc1cc(Nc2nccn3c(-c4ccc(OC(C)C#N)c(F)c4F)cnc23)ccc1C(=O)N1CCC(CN)CC1 (stereo not shown) [Example 119, 2-[4-[8-[4-[4-(aminomethyl)piperidine-1-carbonyl]-3-methyl-anilino]imidazo[1,2-a]pyrazin-3-yl]-2,3-difluoro-phenoxy]propanenitrile;2,2,2-trifluoroacetic acid] | 400 nM |
| Cc1cc(Nc2nccn3c(-c4ccc(OCCCC#N)c(F)c4F)cnc23)ccc1C(=O)N1CCC(CN)CC1 [Example 120, 4-(4-(8-((4-(4-(aminomethyl)piperidine-1-carbonyl)-3-methylphenyl)amino)imidazo[1,2-a]pyrazin-3-yl)-2,3-difluorophenoxy)butanenitrile] | 1000 nM |
